Where “and” joins values, the source holds several entries; their conditions need not be identical. Equal values may be shown once.
Test system: LG0703-F948-PDC complex spheroid viability
Experiment: Anticancer human tumor LG0703-F948-PDC patient-derived lung adenocarcinoma cell line growth inhibition
Conditions: for viability, T/C: stronger effect = lower value
Summary of the method: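 Multicellular complex spheroids of tumor cells with human endothelial cells (HUVEC) and mesenchymal stem cells; the LSD1 inhibitor iadademstat was combined with standard-of-care or investigational agents. Top concentration at or near clinical Cmax, half-log dilutions; final DMSO ≤0.25%.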

[1] = curve of first compound, second compound 0.1 µM
[2] = curve of first compound, second compound 0.316 µM
[3] = curve of first compound, second compound 1 µM
[4] = curve of first compound, second compound 3.16 µM
[5] = curve of first compound, second compound 10 µM
[6] = second compound 0.1 µM, first compound 0.00949 µM
[7] = second compound 0.1 µM, first compound 0.03 µM
[8] = second compound 0.1 µM, first compound 0.0949 µM
[9] = second compound 0.1 µM, first compound 0.3 µM
[10] = second compound 0.316 µM, first compound 0.00949 µM
[11] = second compound 0.316 µM, first compound 0.03 µM
[12] = second compound 0.316 µM, first compound 0.0949 µM
[13] = second compound 0.316 µM, first compound 0.3 µM
[14] = second compound 1 µM, first compound 0.00949 µM
[15] = second compound 1 µM, first compound 0.03 µM
[16] = second compound 1 µM, first compound 0.0949 µM
[17] = second compound 1 µM, first compound 0.3 µM
[18] = second compound 3.16 µM, first compound 0.00949 µM
[19] = second compound 3.16 µM, first compound 0.03 µM
[20] = second compound 3.16 µM, first compound 0.0949 µM
[21] = second compound 3.16 µM, first compound 0.3 µM
[22] = second compound 10 µM, first compound 0.00949 µM
[23] = second compound 10 µM, first compound 0.03 µM
[24] = second compound 10 µM, first compound 0.0949 µM
[25] = second compound 10 µM, first compound 0.3 µM
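Further: spheroids exposed to agents for seven days before readout.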
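Wherever viability, T/C is given: 100% = DMSO vehicle control wells as normalization base.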

Row | SMILES | IC50 [1] | IC50 [2] | IC50 [3] | IC50 [4] | IC50 [5] | viability, T/C [6] | viability, T/C [7] | viability, T/C [8] | viability, T/C [9] | viability, T/C [10] | viability, T/C [11] | viability, T/C [12] | viability, T/C [13] | viability, T/C [14] | viability, T/C [15] | viability, T/C [16] | viability, T/C [17] | viability, T/C [18] | viability, T/C [19] | viability, T/C [20] | other results
1 | Nc1ccccc1NC(=O)c1ccc(CNC(=O)OCc2cccnc2)cc1 + NC1CC1c1ccc(-c2cccc(O)c2)cc1 | 94.8 nM | 90.7 nM | 79.7 nM | 99 nM | 63 nM | 96.4% | 85.7% | 49.5% | 14.9% | 86% | 74.1% | 50.6% | 7.98% | 80.9% | 76.7% | 45.1% | 8.53% | 87.2% | 80.4% | 52.2% | viability, T/C (second compound 0.1 µM, first compound 0.949 µM): 1.36%; viability, T/C (second compound 0.1 µM, first compound 3 µM): 0.66%; viability, T/C (second compound 0.316 µM, first compound 0.949 µM): 0.56%; viability, T/C (second compound 0.316 µM, first compound 3 µM): 0.86%; viability, T/C (second compound 1 µM, first compound 0.949 µM): 0.73%; viability, T/C (second compound 1 µM, first compound 3 µM): 0.8%; viability, T/C [21]: 6.55%; viability, T/C (second compound 3.16 µM, first compound 0.949 µM): 0.23%; viability, T/C (second compound 3.16 µM, first compound 3 µM): 0.32%; viability, T/C [22]: 95.3%; viability, T/C [23]: 68.7%; viability, T/C [24]: 42.5%; viability, T/C [25]: 7.86%; viability, T/C (second compound 10 µM, first compound 0.949 µM): 0.67%; viability, T/C (second compound 10 µM, first compound 3 µM): 0.19%
2 | O=C(C=Cn1cnc(-c2cc(C(F)(F)F)cc(C(F)(F)F)c2)n1)NNc1cnccn1 |  |  |  |  |  |  |  |  |  |  |  |  |  |  |  |  |  |  |  |  | viability, T/C (compound 0.00316 µM): 53.4% and 53.9%; viability, T/C (compound 0.01 µM): 51.9% and 52.1%; viability, T/C (compound 0.0316 µM): 43.6% and 42.3%; viability, T/C (compound 0.1 µM): 38% and 35.1%; viability, T/C (compound 0.316 µM): 35.2% and 29.4%; viability, T/C (compound 1 µM): 30.5% and 24.9%; IC50 (curve of compound): 8.72 nM and 8.71 nM
3 | CCc1c2c(nc3ccc(O)cc13)-c1cc3c(c(=O)n1C2)COC(=O)[C@]3(O)CC + NC1CC1c1ccc(-c2cccc(O)c2)cc1 | 1.2 nM | 1.31 nM | 2.33 nM | 3.09 nM | 2.61 nM | 21.3% | 11.7% | 5.98% | 3.08% | 24.2% | 12.6% | 5.51% | 2.54% | 25.4% | 11.7% | 5.78% | 2.05% | 29.8% | 12.2% | 2.96% | viability, T/C (second compound 0.1 µM, first compound 0.000949 µM): 55.8%; viability, T/C (second compound 0.1 µM, first compound 0.003 µM): 29.2%; viability, T/C (second compound 0.316 µM, first compound 0.000949 µM): 54.8%; viability, T/C (second compound 0.316 µM, first compound 0.003 µM): 37.7%; viability, T/C (second compound 1 µM, first compound 0.000949 µM): 68.2%; viability, T/C (second compound 1 µM, first compound 0.003 µM): 44.7%; viability, T/C (second compound 3.16 µM, first compound 0.000949 µM): 69.9%; viability, T/C (second compound 3.16 µM, first compound 0.003 µM): 49.7%; viability, T/C [21]: 1.53%; viability, T/C (second compound 10 µM, first compound 0.000949 µM): 68.4%; viability, T/C (second compound 10 µM, first compound 0.003 µM): 47.3%; viability, T/C [22]: 23.1%; viability, T/C [23]: 8%; viability, T/C [24]: 1.01%; viability, T/C [25]: 0.49%

— PubChem BioAssay AID1918952 (Molecular Pharmacology Branch, DTP, NCI, 2023)
